Assay results: US9084735B2, “Self-assembling bis-urea compounds for drug delivery” (International Business Machines Corporation, priority 2013, dated 2015)

Tests used:
[1] = system: S. aureus (ATCC No. 6538); assay: MIC by broth microdilution (OD600 growth inhibition); assay type: cell-based, Staphylococcus aureus; details: for growth inhibition of S. aureus by nanofibers alone (OD): blank nanofibers without drug
Protocol: The minimum inhibitory concentrations (MICs) of the penG-loaded nanofibers were measured using a broth microdilution method. First, penG-loaded nanofiber solutions were diluted to give final penG concentrations of 0.05, 0.1, 0.5, 1.0, 5.0 and 10.0 mg/L. S. aureus was grown in tryptic soy broth (TSB) at 37° C. with 300 rpm. The optical density (OD) of the S. aureus solution was adjusted to OD600 nm=0.1 by the addition of TSB. This S. aureus solution was further diluted 100 times (5.7×10^6 CFU/mL). The penG-loaded nanofiber solution (100 microliters) was transferred to each well of a 96 well plate (NUNC), followed by the addition of 100 microliters of the S. aureus solution. TSB was used as a control. The optical density readings of S. aureus solutions were monitored by measuring OD600 nm at predetermined times (0 hours and 18 hours). The assay was performed in four replicates for each sample and the experiments were repeated at least three times.

[2] = Critical micelle concentration of cationic compounds; assay type: physicochemical; details: in water
[3] = Zeta potential of cationic nanofibers before and after drug encapsulation (piperacillin); assay type: physicochemical; details: for zeta potential of nanofibers after drug loading: after piperacillin loading; for zeta potential of nanofibers before drug loading: before piperacillin loading
Source text: The zeta potential of cationic nanofibers before and after drug encapsulation was investigated using the drug piperacillin and C-4 and C-14. […] The zeta potential values of nanofibers of C-14 before and after drug loading were 36.3 and 21.1 mV, respectively. The reduced zeta potential was attributed to the electrostatic interaction between cationic nanofiber and the drug. This proves the formation of a complex between cationic nanofiber and the drug.

[4] = Nanofiber morphology by TEM; assay type: physicochemical; details: C-4 200 mg/L, C-14 80 mg/L
Protocol: The morphologies of the cationic compounds were analyzed by TEM (FEI Tecnai G^2 F20 electron microscope). Cationic compounds solution (5 microliters) were placed on a copper grid coated with carbon film and incubated for 1 minute. Phosphotungstic acid solution (0.1 w/v, 5 microliters) was applied and incubated for another minute. The extra sample on the grid was absorbed by filter paper. The samples were air-dried at room temperature. The TEM observations were carried out with an electron kinetic energy of 200 keV.
FIGS. 2A to 2C are transmission electron micrographs (TEM) of a cast film of the nanofibers formed with C-4 at different magnifications.

[5] = Nanofiber dimensions by AFM; assay type: physicochemical; details: film/solution on mica
Protocol: Atomic force microscopy (AFM) images were acquired on commercial instrumentation under fluid in intermittent contact (‘tapping’) mode at a 0.5 Hz scan rate with silicon on nitride cantilevers of spring constant about 0.35 N/m. For this study, images were collected over scan areas from 1×1 micrometer to 10×10 micrometers at 1024×1024 pixel resolution. Samples were prepared by depositing 60 microliters of polymer solution (at a concentration appropriate for imaging) in water on mica. The statistical mean height (zm) of the nanoparticles was obtained through Gwyddion software for particle analysis using height threshold algorithm.
The dry nanofiber AFM (FIG. 3A) and solution AFM (FIGS. 3B and 3C) of nanofibers formed with C-4 show anisotropic structures having considerably shorter lengths and an average diameter of 4 nm.

Compound | minimum concentration suppressing growth (MIC) ([1]; penG concentration, 18 hours, 5.7×10^6 CFU/mL, TSB) [µg/mL] | CMC [2] [mg/L] | zeta potential of nanofibers after drug loading [3] [mV] | zeta potential of nanofibers before drug loading [3] [mV] | fiber length (TEM) [4] | average fiber diameter (AFM) [5] [nm] | growth inhibition of S. aureus by nanofibers alone (OD) [1] | fiber diameter (TEM) [4] [nm]
CC1(C)S[C@@H]2[C@H](NC(=O)Cc3ccccc3)C(=O)N2[C@H]1C(=O)[O-].[K+] [penG, Penicillin G potassium salt, reference compound] | 0.05 | – | – | – | – | – | – | –
NCCCCNC(=O)Nc1ccc(CNC(=O)c2ccc(C(=O)NCc3ccc(NC(=O)NCCCCN)cc3)cc2)cc1 [Compound C-4] | – | 12 | 23.1 | 35.2 | several hundred | 4 | do not inhibit growth | –
NCc1ccc(CNC(=O)Nc2ccc(CNC(=O)c3ccc(C(=O)NCc4ccc(NC(=O)NCc5ccc(CN)cc5)cc4)cc3)cc2)cc1 [Compound C-14] | – | 20 | 21.1 | 36.3 | several hundred | – | do not inhibit growth | ~5
